Test results as given in ChEMBL document CHEMBL1201862, “PubChem BioAssay data set” (2004).
The source made the active and inactive calls.

Key:
[1] = target: T1, Tyrosine-protein phosphatase non-receptor type 7 (Homo sapiens, UniProt P35236); assay: inhibitors of human HePTP phosphatase, […], biochemical, absorbance, leukemia target (AID 521); assay type: functional
T1 sequence (P35236 whole entry): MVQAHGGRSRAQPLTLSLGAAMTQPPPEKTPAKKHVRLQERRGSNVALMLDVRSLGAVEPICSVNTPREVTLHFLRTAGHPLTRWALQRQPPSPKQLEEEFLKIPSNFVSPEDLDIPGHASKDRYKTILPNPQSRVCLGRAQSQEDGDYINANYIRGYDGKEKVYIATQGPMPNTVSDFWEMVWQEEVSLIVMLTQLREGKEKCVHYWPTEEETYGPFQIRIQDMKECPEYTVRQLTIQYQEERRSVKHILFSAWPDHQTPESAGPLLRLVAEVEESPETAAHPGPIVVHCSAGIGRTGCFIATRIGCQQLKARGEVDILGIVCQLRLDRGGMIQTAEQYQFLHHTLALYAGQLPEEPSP

[2] = Vero cell cytotoxicity, dose response, cytotoxicity control for Vif-APOBEC3G degradation inhibitor project, Vero cells (AID 1117358); assay type: functional; conditions: Human immunodeficiency virus 1, Vero
[3] = A Cell Based Secondary Assay To Explore Cytotoxicity of Compounds that Sensitize Mycobacterium Tuberculosis to Beta-Lactam Antibiotics.; assay type: functional
[4] = P. falciparum Dd2 growth inhibitors, dose response, SYBR Green, cherry-picked samples (AID 1159567); assay type: functional, cell-based
[5] = P. falciparum ATP4 D1247Y mutant growth inhibitors, dose response, NITD609-resistant line, SYBR Green, dry powder (AID 1159571); assay type: functional, cell-based;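 further: parasites synchronized at ring stage by sorbitol before testing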
[6] = P. falciparum 3D7-ScDHODH growth inhibitors, dose response, SYBR Green, dry powder samples (AID 1159570); assay type: functional, cell-based;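 further: parasite growth measured after 72 hours of compound exposure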
[7] = P. falciparum Dd2 growth inhibitors, dose response, SYBR Green, dry powder samples (AID 1159566); assay type: functional, cell-based;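 further: potency for growth inhibition with lower SYBR green DNA signal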
[8] = Plasmodium falciparum Dd2 Sybr green parasite growth Measured in Cell-Based and Microorganism Combination System Using Plate Reader - 2153-01_Inhibitor_Dose_DryPowder_Activity_Set3.; assay type: functional
[9] = HepG2 cell cytotoxicity, dose response, cytotoxicity control, plate reader, dry powder samples (AID 1159569); assay type: functional, cell-based;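 further: inhibitor potency with signal falling toward the positive control level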
[10] = A549 cell cytotoxicity, dose response, CellTiter-Glo luminescence, dry powder, set 17 (AID 1117284); assay type: functional, cell-based
[11] = Single fluorophore orthopox expression reporter, late gene expression Measured in Cell-Based and Microorganism Combination System Using Plate Reader - 2142-08_Inhibitor_Dose_DryPowder_Activity.; assay type: functional
[12] = inhibitors of orthopox intermediate gene expression, dose response, cell-based, single fluorophore reporter, dry powder (AID 1117271); assay type: functional

SMILES: CCc1ccccc1NC(=O)CN(C)Cc1nc(N)nc(Nc2ccccc2C)n1
- IC50 [1]: > 100 µM (not active)

SMILES: O=C(CN1CCN(S(=O)(=O)c2ccc(Cl)s2)CC1)NCc1ccc(Cl)cc1
- CC50 [2]: 15.1 µM (active)

SMILES: Cc1cccc2nc(COc3ccc(Cl)c4cccnc34)cn12
- IC50 (cells): 33.2 µM (active)

SMILES: Cc1ccc(-c2nc3ccccc3o2)cc1NC(=S)NC(=O)/C=C/c1ccco1
- CC50 [3]: 32.9 µM (active)

SMILES: C/C=C/c1ccc([C@H]2[C@@H](C#N)N(C(=O)NC3CCCC3)[C@@H]2CO)cc1
- AC50 [4]: 1.02 µM (active)
- AC50 [5]: 0.626 µM (active)
- AC50 [6]: 15.4 µM (active)
- AC50 [7]: 0.4 µM (active)
- AC50 [8]: 0.719 µM (active)

SMILES: CO[C@@H]1CN(C)C(=O)c2ccc(NC(=O)C3CC3)cc2OC[C@@H](C)N(Cc2cccc(F)c2)C[C@H]1C
- AC50 [4]: 2.98 µM (active)
- AC50 [5]: 3.64 µM (active)
- AC50 [6]: 6.86 µM (active)
- AC50 [7]: 0.664 µM (active)
- AC50 [9]: > 100 µM (inactive)
- AC50 [8]: 4.29 µM (active)

SMILES: C[C@@H](O)C#Cc1ccc2c(c1)O[C@@H](CN(C)Cc1ccc(-c3ccc(Cl)cc3)cc1)[C@@H](C)CN([C@@H](C)CO)S2(=O)=O
- AC50 [10]: 33.4 µM (active)
- AC50 [11]: 1.26 µM (active)
- AC50 [12]: 1.29 µM (active)

SMILES: c1ccc(N2CCN(Cc3nc4ccccc4[nH]3)CC2)nc1 [ABT-724]
- IC50 (cells): 24 µM (active)
